Results reported in article PMC9862800, “Pharmaceutical Systems as a Strategy to Enhance the Stability of Oxytetracycline Hydrochloride Polymorphs in Solution” (Pharmaceutics, 2023).
Structures can show the parent of a compound that is named as a salt.

Legend:
[1] = Apparent binding constant by UV-vis spectroscopy, Scott's plot, ligand β-CD; type: physicochemical; conditions: aqueous solution; absorption at 355 nm; Scott's equation, 1:1 stoichiometry; OxyCl 0.068 mM, ligand 0.068 to 10 mM
Experimental: (§1) UV-vis data were used to calculate the association or binding constants (Ka) of OxyCl polymorphs with each ligand in an aqueous solution by different treatment analyses. The concentration of OxyCl was kept constant (0.068 mM), while the concentration of ligands increased from 0.068 to 10 mM.
(§2) Ka values were determined by applying the formula of Benesi–Hildebrandt, adjusted by Scott utilized for a complex of 1:1 stoichiometry:(1) [L]/ΔAobs=[L]/ΔAc+1/Ka×ΔAc where [L] is the molar concentration of the ligand, ∆Aobs is the variation in the absorbance observed for the OxyCl solid form for a given [L], ΔAc is the variation in the absorbance between the complex and the free solid form.
(§3) The association constant (Ka) for the formation of binary systems was estimated from changes in the intensity of the absorption at 355 nm with increasing ligand concentration using double reciprocal plots of Scott´s equation. […] However, deviations in straight lines were detected for the binary systems with NAC, which determined it was impossible to calculate an association constant assuming this model. To determine the Ka for OxyCl:NAC systems, a model matrix that applied least-squares techniques for the linear transformation of the data was used.

[2] = Apparent binding constant by UV-vis spectroscopy, Scott's plot, ligand ASP; type: physicochemical; conditions: aqueous solution; absorption at 355 nm; Scott's equation, 1:1 stoichiometry; OxyCl 0.068 mM, ligand 0.068 to 10 mM
Experimental: as §1, §2, §3

[3] = Chemical stability (degradation kinetics) in PBS by HPLC; type: physicochemical; conditions: 25.0 ± 0.1 °C; for k0, intrinsic rate constant of degradation of the free polymorph: PBS (pH 7.4), light protection, 30 µg/mL
Experimental: (§4) The kinetics of degradation of OxyCl polymorphs both in the presence and absence of ligands were investigated in the aqueous solutions and PBS.
(§5) Stock solutions of each solid form, as well as each ligand β-CD, ASP, and NAC, were prepared. These stock solutions were diluted to a final concentration of 30 µg/mL in water and PBS solutions to prepare the test solutions. The solutions containing ligands were prepared in the molar ratio of 1:1. These solutions were stored with light protection in order to diminish any photolytic effects in a water bath at a constant temperature of 25.0 ± 0.1 °C. Samples were withdrawn at appropriate time intervals and immediately analyzed by HPLC. The observed pseudo first-order rate constants (kobs) for the OxyCl polymorphs degradation were obtained from a linear regression analysis of the natural logarithm of the remaining solid forms plotted against time.
(§6) An HPLC-UV procedure under isocratic conditions was optimized. The results were expressed as the mean of the three determinations of samples prepared in duplicate. The HPLC system was an Agilent 1100 (Agilent Technologies, Waldbronn, Germany) equipped with a column Gemini C18 250 mm × 4.6 mm i.d. filled with 5 μm particles and a precolumn (guard cartridge SecurityGuard C18 4 mm × 3.0 mm i.d.) supplied by Phenomenex (Phenomenex Inc., Torrance, CA, USA). To avoid interference from degradation products, the UV detection was performed at a wavelength of 355 nm. The mobile phase was acetonitrile-water adjusted to a pH of 3 with phosphoric acid (20:80, v/v), and a flow rate of 1 mL/min was used. The column temperature was 25 °C and the injection volume was 50 µL.
(§7) Furthermore, linear regression analysis was used to estimate the intrinsic rate constant of degradation of the free OxyCl polymorphs (k0), the observed rate constant of OxyCl polymorphs in the presence of ligands (kobs), the half-life (t50), and the time of 10% degradation of the drug (t90).
The degradation plots were linear, indicating apparent first-order kinetics. […] It was observed that OxyCl-I degraded at a faster rate than OxyCl-II and OxyCl-III, with a degradation rate of OxyCl-II < OxyCl-III < OxyCl-I.

[4] = Apparent binding constant by UV-vis spectroscopy, Scott's plot, ligand HIS; type: physicochemical; conditions: aqueous solution; absorption at 355 nm; Scott's equation, 1:1 stoichiometry; OxyCl 0.068 mM, ligand 0.068 to 10 mM
Experimental: as §1, §2, §3

[5] = Chemical stability (degradation kinetics) in aqueous solution by HPLC; type: physicochemical; conditions: 25.0 ± 0.1 °C; for k0, intrinsic rate constant of degradation of the free polymorph: light protection, 30 µg/mL
Experimental: as §4, §5, §6
It is important to mention that the results presented in these studies represent the first report about OxyCl polymorphs stability. The degradation curves of each OxyCl polymorph and its binary systems with β-CD, NAC, and ASP in an aqueous solution, under identical experimental conditions, were compared. […] The kinetic parameters, which are important in the pharmaceutical sector, were determined using a first-order reaction model that could be expressed by the following equation:ln Ct = […] − k t(8) where Ct and C0 were the concentrations of OxyCl at different reaction times and at the initial time, respectively, k was the degradation rate constant, and t was time. As a result, the slope of the fitted lines could be used to determine k.
as §7

[6] = Apparent binding constant by UV-vis spectroscopy, least-squares model matrix, ligand NAC; type: physicochemical; conditions: aqueous solution; absorption at 355 nm; model matrix with least-squares linear transformation; OxyCl 0.068 mM, ligand 0.068 to 10 mM
Experimental: as §1
Another model for measuring binding constants in data analysis utilizes least-squares analysis. The general approach is to use the linear regression method with a model matrix to find the binding association constant and then apply least-squares procedures to a linear transformation. The normal equations can be written in matrix form as:(2) M×P=Q where (3) M=[n∑x∑x∑x^2] (4) P=[a/b] (5) Q=[∑y/∑xy] then:(6) Ka=a/b
as §3

[7] = parameters: method as in doi:10.1016/j.molliq.2017.12.006; conditions: incorporated into β-CD cavity; hydrolytic degradation; cited from earlier work

SMILES | Apparent binding constants Ka, ligand β-CD [1] | Apparent binding constants Ka, ligand ASP [2] | k0, intrinsic rate constant of degradation of the free polymorph [3] [h⁻¹] | t50, half-life ([3]; PBS) [h] | t90, time of 10% degradation of the drug ([3]; PBS) [h] | Apparent binding constants Ka, ligand HIS [4] [M⁻¹] | t50, half-life [5] [h] | t90, time of 10% degradation of the drug [5] [h] | k0, intrinsic rate constant of degradation of the free polymorph [5] [h⁻¹] | Apparent binding constants Ka, ligand NAC [6] [M⁻¹] | increase of half-life in aqueous solutions by β-CD [7] [fold] | half-life at 30 µg/mL ([3]; PBS, pH 7.4, PBS, read-out: t50, half-life (converted)) [h] | half-life at 30 µg/mL ([5]; pH 4, aqueous solution, read-out: t50, half-life (converted)) [h]
CN(C)[C@@H]1C(O)=C(C(N)=O)C(=O)[C@@]2(O)C(O)=C3C(=O)c4c(O)cccc4[C@@](C)(O)[C@H]3[C@H](O)[C@@H]12 [OxyCl-II, Oxytetracycline hydrochloride] | 15,425 M^−1 | 3063 M⁻¹ | 0.005 | 139 | 21 | 323 | 57 | 9 | 0.0121 | 4582 | – | – | –
NS(=O)(=O)c1cc2c(cc1Cl)NCNS2(=O)=O [hydrochlorothiazide] | – | – | – | – | – | – | – | – | – | – | ~28 | – | –
CN(C)[C@@H]1C(O)=C(C(N)=O)C(=O)[C@@]2(O)C(O)=C3C(=O)c4c(O)cccc4[C@@](C)(O)[C@H]3[C@H](O)[C@@H]12 [OxyCl-I, Oxytetracycline hydrochloride] | 3761 M⁻¹ | 34,645 M^−1 | 0.009 | – | 12 | 224 | 68 | 10 | 0.0102 | 2042 | – | 81 | –
CN(C)[C@@H]1C(O)=C(C(N)=O)C(=O)[C@@]2(O)C(O)=C3C(=O)c4c(O)cccc4[C@@](C)(O)[C@H]3[C@H](O)[C@@H]12 [OxyCl-III, Oxytetracycline hydrochloride] | 3607 M⁻¹ | 1771 M⁻¹ | 0.007 | 102 | 15 | 8247 | – | 9 | 0.0116 | 3897 | – | – | 60
